In brackets after ≈: the same amount, converted by molar mass. *1 amine or outer side, *2 acyl side, *3 side chain or, on linkers, in order; H or OH if unused. Where a SMILES comes first, the peptide text is derived from it. Bridges are numbered along the chain shown (N, C = ends). [ ]: non-standard residue; d: D form. The star is where a group is joined. hTyr(3S-OH,4S-OH,3'-OSO3H) = N[C@H](C(=O)O)[C@H](O)[C@@H](O)c1ccc(O)c(OS(=O)(=O)O)c1; Orn(4R-OH,5R-OH) = O=C([C@H](C[C@@H](O)[C@@H](O)N[*:3])N[*:1])[*:2]; Pro(3S-OH,4S-Me) = C[C@H]1CN[C@H](C(=O)O)[C@H]1O; X1 = CCCCCOc1ccc(-c2cc(-c3ccc(C(=O)*)cc3)no2)cc1; Gln(3R-OH) = NC(=O)C[C@@H](O)[C@H](N)C(=O)O; Hyp = O=C(O)[C@@H]1C[C@@H](O)CN1
Assays:
Assay in all cases: Anti-fungal/anti-yeast activity: MIC50 (broth microdilution) and MFC
Format in all cases: cell-based
[1] = system: Saccharomyces cerevisiae (YPH501)
Candida lusitaniae = system: Candida lusitaniae
Experimental: (§1) Fluconazole, an ergosterol inhibitor, and the beta-1,3-glucan inhibitor micafungin served as controls (See Tables 1-8).
(§2) The minimum inhibitory concentrations resulting in 50% growth inhibition (MIC50) of […] Candida species (C. albicans, C. tropicalis and C. glabrata, C. lusitaniae, C. parapsilosis, and C. apicola) as well as Aspergillus fumigatus to a set of novel synthetic compounds was determined in accordance with the guidelines in CLSI document M27-A2 (Clinical and Laboratory Standards Institute; Wayne, Pa.). The total volume of cells and drug was 100 μL per microtiter well, and each drug was diluted in RPMI to achieve final concentrations of 0.2-100 μg/ml. Uninoculated cultures were used as a reference standard. Stock inoculum suspensions were prepared from 24 hour cultures on YPD (yeast extract/peptone/dextrose) media at 30° C. For MIC determinations, an inoculum of 1.0×10^3 cells of Candidia and 2.0×10^3 cells of Aspergillus per well were used, and cells in diluted drugs were prepared in RPMI-1640 medium. MICs were determined both visually and spectrophotometrically at 24 hours and 48 h at 550 nm using a micro plate reader. The MIC50 endpoint was measured as the lowest drug concentration resulting in a reduction of growth of 50% or more compared with growth of the control.
(§3) The minimum fungicidal concentrations (MFCs) were determined for each drug-isolate-medium combination as follows. After 48 hours of incubation, 100 μL of each drug-isolate-medium combination (2 plates) was subcultured onto YPD plates (100 μL of solution was spread over the YPD plate). […] The plates were then incubated at 30° C. for 48 hours.
(§4) The in vitro fungicidal activities (MFCs) were determined for each drug-isolate-medium combination as follows. After 48 hours of incubation, 10 μL each drug-isolate-medium combination was spotted onto YPD plates (10 μL of each well is spotted sequentially with positive and negative control wells). […] The plates were then incubated at 30° C. for 48 hours.

Candida glabrata = system: Candida glabrata
Experimental: as §1, §2, §3, §4

Candidia parapsilosis = system: Candidia parapsilosis
Experimental: as §1, §2, §3, §4

Candida tropicalis = system: Candida tropicalis
Experimental: as §1, §2, §3, §4

Aspergillus fumigatus = system: Aspergillus fumigatus
Experimental: as §1, §2, §3, §4

Candida albicans (CAF-2) = system: Candida albicans (CAF-2)
Experimental: as §1, §2, §3, §4

Candida apicola = system: Candida apicola
Experimental: as §1, §2, §3, §4

[2] = Saccharomyces cerevisiae (YPH501)

**Q.** What does the source list for CCCCCOc1ccc(-c2cc(-c3ccc(C(=O)N[C@H]4C[C@@H](O)[C@@H](O)NC(=O)[C@@H]5[C@@H](O)[C@@H](C)CN5C(=O)[C@H]([C@H](O)CC(N)=O)NC(=O)[C@H]([C@H](O)[C@@H](O)c5ccc(O)c(OS(=O)(=O)O)c5)NC(=O)[C@@H]5C[C@@H](O)CN5C(=O)[C@H]([C@@H](C)O)NC4=O)cc3)no2)cc1 [Micafungin, micafungin, reference compound] (X1-[Orn(4R-OH,5R-OH)]T[Hyp][hTyr(3S-OH,4S-OH,3'-OSO3H)][Gln(3R-OH)][Pro(3S-OH,4S-Me)]; lactam 1-C)?
**A.** MFC ([1]; Saccharomyces cerevisiae): 0.064 µg/mL (≈ 0.0504 µM); MIC50 ([1]; Saccharomyces cerevisiae): 0.032 µg/mL (≈ 0.0252 µM); Activity (fungicidal/fungistatic) [1, 2]: fungicidal (An MFC/MIC ratio of less than four indicates that the compound is fungicidal); Ratio MFC/MIC [1, 2]: 2; Activity (fungicidal/fungistatic) (Candida lusitaniae; Candida lusitaniae): fungicidal (An MFC/MIC ratio of less than four indicates that the compound is fungicidal); Ratio MFC/MIC (Candida lusitaniae; Candida lusitaniae): 1; MFC (Candida lusitaniae; Clavispora lusitaniae): 0.032 µg/mL; MIC50 (Candida lusitaniae; Clavispora lusitaniae): 0.032 µg/mL; Activity (fungicidal/fungistatic) (Candida glabrata; Candida glabrata): fungicidal (An MFC/MIC ratio of less than four indicates that the compound is fungicidal); Ratio MFC/MIC (Candida glabrata; Candida glabrata): 1; MFC (Candida glabrata; Nakaseomyces glabratus): 0.016 µg/mL; MIC50 (Candida glabrata; Nakaseomyces glabratus): 0.016 µg/mL; MFC (Candidia parapsilosis): 3.2 µg/mL; MIC50 (Candidia parapsilosis): 0.4 µg/mL; Activity (fungicidal/fungistatic) (Candidia parapsilosis; Candidia parapsilosis): fungistatic (an MFC/MIC ratio of greater than four indicates that the compound is fungistatic); Ratio MFC/MIC (Candidia parapsilosis; Candidia parapsilosis): 8; Activity (fungicidal/fungistatic) (Candida tropicalis): fungicidal (An MFC/MIC ratio of less than four indicates that the compound is fungicidal); MFC (Candida tropicalis): 0.032 µg/mL; MIC50 (Candida tropicalis): 0.016 µg/mL; Ratio MFC/MIC (Candida tropicalis): 2; Activity (fungicidal/fungistatic) (Aspergillus fumigatus): fungistatic (an MFC/MIC ratio of greater than four indicates that the compound is fungistatic); MFC (Aspergillus fumigatus): 8 µg/mL; MIC50 (Aspergillus fumigatus): 1 µg/mL; Ratio MFC/MIC (Aspergillus fumigatus): 8; Activity (fungicidal/fungistatic) (Candida albicans (CAF-2)): fungicidal (An MFC/MIC ratio of less than four indicates that the compound is fungicidal); MFC (Candida albicans (CAF-2)): 0.016 µg/mL; MIC50 (Candida albicans (CAF-2)): 0.016 µg/mL; Ratio MFC/MIC (Candida albicans (CAF-2)): 1; Activity (fungicidal/fungistatic) (Candida apicola; Candida apicola): fungicidal (An MFC/MIC ratio of less than four indicates that the compound is fungicidal); Ratio MFC/MIC (Candida apicola; Candida apicola): 2; MFC (Candida apicola; Starmerella apicola): 0.032 µg/mL; MIC50 (Candida apicola; Starmerella apicola): 0.016 µg/mL

Source: patent US9040715B2 (priority 2008, dated 2015)
